From a melting point compilation (Tetko et al.; mined from patent text by program, amines drawn as free bases though some values may be those of a salt)

Row | melting point [°C] | Compound
1 | 208 to 210 | NCC1CC1CCC(=O)Nc1ccc(NC(=O)CCC2CC2CN)c2c1C(=O)c1ccccc1C2=O (configuration not stated)
2 | 86 to 87 | O=C(O)CCCCCCCCn1nnc(-c2ccccc2)c1-c1ccccc1
3 | 315 | O=C(O)c1ccccc1C(=O)c1cccc(NC(=O)c2ccn3c2CSC3c2cccnc2)c1 (configuration not stated)
4 | 140 | O=C(O)[C@H]1Cc2ccccc2CN1S(=O)(=O)c1ccc([N+](=O)[O-])cc1
5 | 149 to 153 | Cc1ccc2c(c1)c1c(n2C(=O)c2ccccc2)CCCC1C(=O)O (configuration not stated)
6 | 265 to 266 | CCOC(=O)c1cccc2c(=O)cc(-c3ccc(OCc4ncc5ccccc5n4)cc3)oc12
7 | 35 to 37 | O=C(Cl)c1cc(F)c(Cl)c([N+](=O)[O-])c1Cl
8 | 185 to 188 | COc1ccc(CNc2ncnc(Cl)c2N)cc1OC
9 | 117 to 118 | COc1ccc(OC)c2c1C(=O)C=C(SCCO)C2=O
10 | 86 to 88 | COc1cc(CCNC(=O)Cc2ccc(Br)cc2)cc(OC)c1
11 | 169 to 171 | COc1ccc(N2C(=O)c3ccc(Cl)cc3C2CC(=O)N2CCN(C)CC2)cc1 (configuration not stated)
12 | 140 to 143 | CN(C)S(=O)(=O)c1ccc(-c2ccccc2)cc1S(=O)(=O)Cl
13 | 163 to 164 | COc1ccc(C(=O)Nc2ccc(F)cc2)cc1Nc1cccc(C(F)(F)F)c1
14 | 159 to 161 | NC(=S)N1CCC(c2cccc(C(F)(F)F)c2)=N1
15 | 202 to 205 | CN(C)C(=O)c1ccc(C(N)=O)cc1S(N)(=O)=O
16 | > 215 | CCOC(=O)CCc1c(O)ccc2c(=O)c3cc(C(=O)OC)ccc3oc12
17 | 240 to 242 | CCn1cc(C(=O)O)c(=O)c2cc(F)c(N3CCC(N)C3)c(F)c21 (configuration not stated)
18 | 250 | O=C1O[C@@H](CO)[C@H]2CCc3cc(O)ccc3N12 (relative stereo)
19 | 93 | COc1ccc(C(=O)CC(Cc2ccccc2)C(=O)O)cc1 (single isomer, unassigned; (+))
20 | 103 to 104 | CSc1nn(-c2c(Cl)cc(C(F)(F)F)cc2Cl)c(C)c1C(=O)c1cccc(C)c1
21 | 114 to 116 | CC(C)CC(NC(=O)c1ccc(NCc2c[nH]cn2)cc1-c1ccccc1)C(=O)O (configuration not stated)
22 | 75 to 77 | CCOC(=O)Cc1ccc(Cc2nc3c(F)c(F)cc(F)c3s2)cc1
23 | 100 to 102 | Nc1ccsc1C(=O)c1ccccc1
24 | 70 to 72 | CCCCCCCCCCCCCCCCNc1ccc(C(=O)N(C)C)cc1
25 | 199 to 200 | CC(C)(C)OC(=O)C(C1NC(C(=O)O)C2(CCOCC2)S1)N1C(=O)c2ccccc2C1=O (configuration not stated)
26 | 194 to 196 | COc1cc2c(Nc3ccc(Cl)cc3F)ncnc2cc1OCCN(C)C(=O)OC(C)(C)C
27 | > 300 | O=C(O)/C=C/c1ccc(-c2nc3c(=O)n(CC4CCC4)c(=O)n(CC4CCC4)c3[nH]2)cc1

Row | melting point [°C] | Compound
28 | 89 to 91 | CN(C(=O)OC(C)(C)C)c1cc(Oc2ccc(-c3ccc(O)cc3)cc2)ccc1N
29 | 81 to 83 | CCOC(=O)C(C#N)c1cn(C(=O)OCC)c2ccc(OC)cc12 (configuration not stated)
30 | > 350 | O=c1[nH][nH]c2c1c(O)nc1cc(Cl)ccc12
31 | 265 | O=C(O)/C=C/c1ccc(N2CCCC2)cc1
32 | 146 | CSc1cccc(C(=C2CN(C(c3ccccc3)c3ccccc3)C2)S(C)(=O)=O)c1
33 | 167 to 168 | O=C(O)CN(C(=O)CCCCl)c1csc2ccccc12
34 | 179 | CCCC1=C(C(=O)OCC)C(c2ccccc2N)c2c[nH]nc2N1 (configuration not stated)
35 | 166 to 173 | Cc1noc(NS(=O)(=O)c2ccc(I)cc2)c1Br
36 | 61 to 64 | CCCCNS(=O)(=O)CC(O)C(O)C(CC1CCCCC1)NC(=O)c1cccnc1 (configuration not stated)
37 | 144 to 147 | CC(C)(ON=C(C(=O)N[C@@H]1C(=O)N[C@@H]1C(N)=O)c1csc(NC(=O)CCl)n1)C(=O)OCc1ccc([N+](=O)[O-])cc1 (relative stereo)
38 | 122 to 124 | Cc1ccsc1CNC(=O)C(=O)NCCc1ccccn1
39 | 83 to 84 | CCOC(=O)C(C(=O)OCC)N(Cc1ccc(OC)cc1OC)C(=O)CCl
40 | 136 to 137 | CC(C)(C)OC(=O)CN1CC(c2ccc(F)cc2)CCC(N=[N+]=[N-])C1=O (configuration not stated)
41 | 175 to 177 | COC(=O)c1ccc(Cc2ccc(NC(C)=O)cc2)cn1
42 | 205 to 206 | CN1C(=O)C(NC(=O)OC(C)(C)C)CC(=O)c2ccccc21 (configuration not stated)
43 | 125 to 126 | CCOC(=O)C1=C(C)NC(C)=C(C(=O)OCC)C1c1cccc(Br)c1
44 | 51 to 52 | O=C(CSc1ccccc1)c1ccccc1
45 | 62 | CC(=O)OCCCCc1c(C)[nH]c(C(=O)OC(C)(C)C)c1C
46 | 148 to 150 | CC(C)(C)c1ccc2c(c1)c(Sc1ccccc1)c(CC(=O)O)n2Cc1ccc(Cl)cc1
47 | > 310 | O=C(O)c1ccc2nc3ccccn3c(=O)c2c1
48 | 120 | CC(C)(C)OC(=O)Nc1cc(Cl)c(Cl)c(Cl)c1
49 | 225 to 226 | NS(=O)(=O)c1ccc(-c2cc(-c3c[nH]nc3-c3cccc(C4CC4)n3)ccc2F)cc1
50 | 166 | Cc1cccc(N(CC(=O)OC(C)(C)C)C(=O)CN2C(=O)c3ccccc3C2=O)c1
51 | 160 to 162 | CCOC(=O)[C@@H]1C[C@H](C(=O)O)Nc2cc(Cl)cc(Cl)c21 (relative stereo)
52 | 107 to 110 | COC(=O)CCC(=O)N(C)c1cccc(OCc2nc3ccccc3s2)c1
53 | 125 to 126 | CCCOc1ccc2c(c1)C(=O)C(C(=O)OC)=C2c1ccc2c(c1)OCO2
54 | 83 to 84 | CC(C)(C)OC(=O)NCC[C@H]1CC[C@H](COS(C)(=O)=O)CC1

Second part, the compound before the results:

Row | Compound | melting point [°C]
55 | COC(C1=CN(C)CS1)c1ccccc1COc1cc(Cl)ccc1Cl (configuration not stated) | 78.5 to 79.5
56 | COc1cc2ncc(C#N)c(Nc3cc(C)c(C)cc3N)c2cc1OC | 260 to 262
57 | COc1cc(C(O)CN2CCC(C(c3ccccc3)c3ccccc3)CC2)on1 (configuration not stated) | 121 to 126
58 | Cc1cc(C)c2c(-c3cc(C(C)(C)C)c(O)c(C(C)(C)C)c3)n[nH]c2n1 | 257 to 258
59 | CN1Cc2cccc(SCc3ccccc3)c2S1(=O)=O | 119 to 122
60 | COc1cc2nc(C)[nH]c(=O)c2cc1OCCCN1CCOCC1 | 236 to 238
61 | O=C1NCC[C@H](c2ccc(C(F)(F)F)cc2)[C@@H]1c1ccccc1 (relative stereo) | 155 to 156
62 | CCN1C(=O)CC2(CNC(=O)C2)C1=O (configuration not stated) | 168 to 169
63 | Nc1nc(-c2cccc(F)c2)nc2nc(-c3ccco3)nn12 | > 300
64 | COCO[C@@H]1[C@H]2OC(C)(C)O[C@H]2[C@H](O[C@H]2C[C@H]3OC(C)(C)OC[C@]34C3C(CC[C@]4(O)C2)[C@@]2(O)CC[C@H](CO)[C@@]2(C)C[C@H]3OCOC)O[C@H]1C (some centres not stated) | 126 to 129
65 | CCC(CC)Oc1cc(C)nc2c1[nH]c(=O)n2-c1c(C)cc(C)cc1C | 184 to 186
66 | CCCCCCNc1nc(N)nc2c1ncn2C1CC(F)C(CO)O1 (configuration not stated) | 50 to 51
67 | O=C(Cl)c1cc([N+](=O)[O-])c(Cl)c([N+](=O)[O-])c1 | 55 to 57
68 | Cc1oc(-c2ccccc2)nc1COc1nn(Cc2ccc(Oc3ccccc3)cc2)cc1C(N)=O | 158 to 159
69 | CCOc1nc(=O)c2cc(C(F)(F)F)cc([N+](=O)[O-])c2s1 | 146 to 148
70 | CN1C(=O)CN=C(c2ccccc2F)c2cc(NC(=O)NCCOC(C)(C)C)ccc21 | 177
71 | CCCCCCCSc1nn2c(=O)c(OC)cnc2s1 | 68 to 71
72 | Cn1cc(-c2ncc(-c3ccc4cc(OCc5nnn[nH]5)ccc4c3)o2)c2ccccc21 | 254 to 256
73 | O=[N+]([O-])c1cn(-c2cccnc2)nc1Cl | 139 to 142
74 | CCCc1nn(-c2ccc(C(F)(F)F)cn2)cc1CCCCOc1c(CC(=O)O)cccc1OC | 111 to 112
75 | CCCCc1ncc(/C=C(\Cc2cccs2)c2nnn[nH]2)n1Cc1ccc(-c2nnn[nH]2)cc1 | 227 to 230
76 | Nc1cc(Br)cnc1CCCCNC1=NS(=O)N=C1NCc1ccncc1 (configuration not stated) | 63 to 66

Row | Compound | melting point [°C]
77 | O=C1N(N2CCOCC2)c2ccccc2C1(Cc1ccnc(F)c1)c1ccccc1 (configuration not stated) | 170 to 172
78 | Nc1nc(=O)n(COCc2ccccc2)cc1F | 213 to 217
79 | CSc1nc(O)cc(OC(F)F)n1 | 236 to 237
80 | COC1=C(OC)C(=O)C(CCCCCC[C@H]2CC[C@H](O)CC2)=C(C)C1=O | 33.5 to 35.5
81 | COc1ccc2ccc(-n3nc(OCCN4CCOCC4)cc3C)cc2c1 | 143 to 147
82 | CC(C)(C)C(CC#N)(SN=O)C(C)(C)C | 92 to 93
83 | CN1C(=O)C(C#N)(c2ccc(OCC(O)CNC(C)(C)C)cc2)Sc2ccccc21 (configuration not stated) | 160
84 | O=[N+]([O-])c1ccc(Oc2cc3ccccc3cc2Oc2ccc([N+](=O)[O-])c(O)c2)cc1O | 179 to 181
85 | CCOCCOCCn1c(C=O)cc2c3c(c(-c4ccccc4Cl)cc21)C(=O)NC3=O | 162 to 165
86 | CC(C)C(O)CCC(C)C1CCC2C3CC(O)C4CC(O)CCC4(C)C3CCC12C (configuration not stated) | 169 to 173
87 | O=C(O)C1CN(Cc2ccccc2)CCN1Cc1ccccc1 (configuration not stated) | 184 to 185
88 | COc1ccccc1CC(=O)N1C[C@@H]2[C@H](C1)[C@@](O)(c1ccccc1OC)[C@H](O)CC2(c1ccccc1)c1ccccc1 (racemic) | 278
89 | CCOP(=O)(C/C=C/CNc1c(N)c(=O)c1=O)OCC | 145 to 147
90 | OCc1c[nH]c(=S)n1[C@H]1CCc2c(F)cc(F)cc2C1 | 206 to 207
91 | O=C(c1ccc(F)cc1)C1CCN(CCCC2(c3ccc(F)cc3)OCCO2)CC1 | 62 to 64
92 | CCc1cc(CC)c(-c2c(O)c(C)nn(C)c2=O)c(CC)c1I | 217 to 219
93 | O=c1nc(-c2ccccn2)sc2cc(Br)ccc12 | 231 to 232
94 | Cn1c(=O)oc2cc([N+](=O)[O-])cc(F)c21 | 118 to 119
95 | O=C(c1ccc(OCc2ccnc3ccccc23)cc1)[NH+]([O-])C1CCN(Cc2ccccc2)CC1 (configuration not stated) | 171 to 173
96 | CCCn1cc(-c2ccccc2)c(=O)c(-c2ccccc2)n1 | 94 to 96
97 | CCCCc1nc2cccc(C(=O)OC)c2n1Cc1ccc(-c2ccccc2-c2nnn[nH]2)cc1 | 153 to 155
